Assays:
Putamen [1] = assay: Drug uptake in anesthetized cynomolgus monkey brain putamen after 165 mins postinjection; format: ADME, organism-based, Macaca fascicularis; conditions: in vivo, 2.75 h
Putamen [2] = assay: Drug uptake in anesthetized cynomolgus monkey brain putamen after 18.5 mins postinjection; format: ADME, organism-based, Macaca fascicularis; design: unit not given here; conditions: in vivo
Caudate [3] = assay: Drug uptake in anesthetized cynomolgus monkey brain caudate after 45 mins postinjection; format: ADME, organism-based, Macaca fascicularis, Caudate nucleus; conditions: in vivo, 0.75 h
Midbrain [4] = assay: Drug uptake in anesthetized cynomolgus monkey brain midbrain after 18.5 mins postinjection; format: ADME, organism-based, Macaca fascicularis; design: unit not given here; conditions: in vivo
Caudate [5] = assay: Drug uptake in anesthetized cynomolgus monkey brain caudate after 235 mins postinjection; format: ADME, organism-based, Macaca fascicularis, Caudate nucleus; conditions: in vivo
[6] = Ratio of drug uptake in occipital lobe to cerebellum in anesthetized cynomolgus monkey after 195 mins postinjection; format: ADME, organism-based, Macaca fascicularis; conditions: in vivo, 3.25 h
[7] = Drug uptake in anesthetized cynomolgus monkey brain occipital lobe after 155 mins postinjection; format: ADME, organism-based, Macaca fascicularis; conditions: in vivo
[8] = Drug uptake in anesthetized cynomolgus monkey brain frontal lobe after 215 mins postinjection; format: ADME, organism-based, Macaca fascicularis; conditions: in vivo
[9] = Drug uptake in anesthetized cynomolgus monkey brain frontal lobe after 95 mins postinjection; format: ADME, organism-based, Macaca fascicularis; conditions: in vivo
[10] = Ratio of drug uptake in occipital lobe to cerebellum in anesthetized cynomolgus monkey after 205 mins postinjection; format: ADME, organism-based, Macaca fascicularis; conditions: in vivo
Pons [11] = assay: Drug uptake in anesthetized cynomolgus monkey brain pons after 9.5 mins postinjection; format: ADME, organism-based, Macaca fascicularis; conditions: in vivo
Medulla [12] = assay: Drug uptake in anesthetized cynomolgus monkey brain medulla after 95 mins postinjection; format: ADME, organism-based, Macaca fascicularis; conditions: in vivo
Putamen [13] = assay: Drug uptake in anesthetized cynomolgus monkey brain putamen after 115 mins postinjection; format: ADME, organism-based, Macaca fascicularis; design: unit not given here; conditions: in vivo
Caudate [14] = assay: Drug uptake in anesthetized cynomolgus monkey brain caudate after 55 mins postinjection; format: ADME, organism-based, Macaca fascicularis, Caudate nucleus; conditions: in vivo
Medulla [15] = assay: Drug uptake in anesthetized cynomolgus monkey brain medulla after 1.5 mins postinjection; format: ADME, organism-based, Macaca fascicularis; conditions: in vivo, 0.025 h
Midbrain [16] = assay: Drug uptake in anesthetized cynomolgus monkey brain midbrain after 3.5 mins postinjection; format: ADME, organism-based, Macaca fascicularis; design: unit not given here; conditions: in vivo
Medulla [17] = assay: Drug uptake in anesthetized cynomolgus monkey brain medulla after 6.5 mins postinjection; format: ADME, organism-based, Macaca fascicularis; conditions: in vivo
[18] = Ratio of drug uptake in pons to cerebellum in anesthetized cynomolgus monkey after 175 mins postinjection; format: ADME, organism-based, Macaca fascicularis; conditions: in vivo
[19] = Ratio of drug uptake in medulla to cerebellum in anesthetized cynomolgus monkey after 35 mins postinjection; format: ADME, organism-based, Macaca fascicularis; conditions: in vivo
Pons [20] = assay: Drug uptake in anesthetized cynomolgus monkey brain pons after 55 mins postinjection; format: ADME, organism-based, Macaca fascicularis; conditions: in vivo
Caudate [21] = assay: Drug uptake in anesthetized cynomolgus monkey brain caudate after 85 mins postinjection; format: ADME, organism-based, Macaca fascicularis, Caudate nucleus; conditions: in vivo
Putamen [22] = assay: Drug uptake in anesthetized cynomolgus monkey brain putamen after 6.5 mins postinjection; format: ADME, organism-based, Macaca fascicularis; design: unit not given here; conditions: in vivo
Thalamus [23] = assay: Drug uptake in anesthetized cynomolgus monkey brain thalamus after 175 mins postinjection; format: ADME, organism-based, Macaca fascicularis; design: unit not given here; conditions: in vivo
Medulla [24] = assay: Drug uptake in anesthetized cynomolgus monkey brain medulla after 145 mins postinjection; format: ADME, organism-based, Macaca fascicularis; conditions: in vivo
Midbrain [25] = assay: Drug uptake in anesthetized cynomolgus monkey brain midbrain after 22.5 mins postinjection; format: ADME, organism-based, Macaca fascicularis; design: unit not given here; conditions: in vivo, 0.375 h
Thalamus [26] = assay: Drug uptake in anesthetized cynomolgus monkey brain thalamus after 2.5 mins postinjection; format: ADME, organism-based, Macaca fascicularis; design: unit not given here; conditions: in vivo
Medulla [27] = assay: Drug uptake in anesthetized cynomolgus monkey brain medulla after 155 mins postinjection; format: ADME, organism-based, Macaca fascicularis; conditions: in vivo
Pons [28] = assay: Drug uptake in anesthetized cynomolgus monkey brain pons after 18.5 mins postinjection; format: ADME, organism-based, Macaca fascicularis; conditions: in vivo
Putamen [29] = assay: Drug uptake in anesthetized cynomolgus monkey brain putamen after 185 mins postinjection; format: ADME, organism-based, Macaca fascicularis; conditions: in vivo
[30] = Ratio of drug uptake in caudate to cerebellum in anesthetized cynomolgus monkey after 12.5 mins postinjection; format: ADME, organism-based, Macaca fascicularis; conditions: in vivo
Midbrain [31] = assay: Drug uptake in anesthetized cynomolgus monkey brain midbrain after 9.5 mins postinjection; format: ADME, organism-based, Macaca fascicularis; design: unit not given here; conditions: in vivo
Midbrain [32] = assay: Drug uptake in anesthetized cynomolgus monkey brain midbrain after 35 mins postinjection; format: ADME, organism-based, Macaca fascicularis; design: unit not given here; conditions: in vivo
Pons [33] = assay: Drug uptake in anesthetized cynomolgus monkey brain pons after 135 mins postinjection; format: ADME, organism-based, Macaca fascicularis; conditions: in vivo, 2.25 h
Caudate [34] = assay: Drug uptake in anesthetized cynomolgus monkey brain caudate after 1.5 mins postinjection; format: ADME, organism-based, Macaca fascicularis, Caudate nucleus; conditions: in vivo, 0.025 h
Midbrain [35] = assay: Drug uptake in anesthetized cynomolgus monkey brain midbrain after 105 mins postinjection; format: ADME, organism-based, Macaca fascicularis; design: unit not given here; conditions: in vivo, 1.75 h
Midbrain [36] = assay: Drug uptake in anesthetized cynomolgus monkey brain midbrain after 6.5 mins postinjection; format: ADME, organism-based, Macaca fascicularis; design: unit not given here; conditions: in vivo
Medulla [37] = assay: Drug uptake in anesthetized cynomolgus monkey brain medulla after 195 mins postinjection; format: ADME, organism-based, Macaca fascicularis; conditions: in vivo, 3.25 h
Caudate [38] = assay: Drug uptake in anesthetized cynomolgus monkey brain caudate after 4.5 mins postinjection; format: ADME, organism-based, Macaca fascicularis, Caudate nucleus; conditions: in vivo, 0.075 h
Putamen [39] = assay: Drug uptake in anesthetized cynomolgus monkey brain putamen after 225 mins postinjection; format: ADME, organism-based, Macaca fascicularis; conditions: in vivo, 3.75 h
Medulla [40] = assay: Drug uptake in anesthetized cynomolgus monkey brain medulla after 2.5 mins postinjection; format: ADME, organism-based, Macaca fascicularis; conditions: in vivo
Midbrain [41] = assay: Drug uptake in anesthetized cynomolgus monkey brain midbrain after 55 mins postinjection; format: ADME, organism-based, Macaca fascicularis; design: unit not given here; conditions: in vivo
Thalamus [42] = assay: Drug uptake in anesthetized cynomolgus monkey brain thalamus after 55 mins postinjection; format: ADME, organism-based, Macaca fascicularis; design: unit not given here; conditions: in vivo
[43] = Ratio of drug uptake in medulla to cerebellum in anesthetized cynomolgus monkey after 1.5 mins postinjection; format: ADME, organism-based, Macaca fascicularis; conditions: in vivo, 0.025 h
[44] = Ratio of drug uptake in frontal lobe to cerebellum in anesthetized cynomolgus monkey after 75 mins postinjection; format: ADME, organism-based, Macaca fascicularis; conditions: in vivo, 1.25 h
Medulla [45] = assay: Drug uptake in anesthetized cynomolgus monkey brain medulla after 4.5 mins postinjection; format: ADME, organism-based, Macaca fascicularis; conditions: in vivo, 0.075 h
Medulla [46] = assay: Drug uptake in anesthetized cynomolgus monkey brain medulla after 215 mins postinjection; format: ADME, organism-based, Macaca fascicularis; conditions: in vivo
[47] = Drug uptake in anesthetized cynomolgus monkey brain occipital lobe after 0.5 mins postinjection; format: ADME, organism-based, Macaca fascicularis; conditions: in vivo
Medulla [48] = assay: Drug uptake in anesthetized cynomolgus monkey brain medulla after 235 mins postinjection; format: ADME, organism-based, Macaca fascicularis; conditions: in vivo
Midbrain [49] = assay: Drug uptake in anesthetized cynomolgus monkey brain midbrain after 215 mins postinjection; format: ADME, organism-based, Macaca fascicularis; conditions: in vivo
[50] = Drug uptake in anesthetized cynomolgus monkey brain cerebellum after 22.5 mins postinjection; format: ADME, organism-based, Macaca fascicularis; conditions: in vivo, 0.375 h
[51] = Ratio of drug uptake in medulla to cerebellum in anesthetized cynomolgus monkey after 65 mins postinjection; format: ADME, organism-based, Macaca fascicularis; conditions: in vivo
[52] = Ratio of drug uptake in medulla to cerebellum in anesthetized cynomolgus monkey after 12.5 mins postinjection; format: ADME, organism-based, Macaca fascicularis; conditions: in vivo
Pons [53] = assay: Drug uptake in anesthetized cynomolgus monkey brain pons after 175 mins postinjection; format: ADME, organism-based, Macaca fascicularis; conditions: in vivo
[54] = Ratio of drug uptake in midbrain to cerebellum in anesthetized cynomolgus monkey after 27.5 mins postinjection; format: ADME, organism-based, Macaca fascicularis; conditions: in vivo
[55] = Ratio of drug uptake in frontal lobe to cerebellum in anesthetized cynomolgus monkey after 135 mins postinjection; format: ADME, organism-based, Macaca fascicularis; conditions: in vivo, 2.25 h
[56] = Ratio of drug uptake in putamen to cerebellum in anesthetized cynomolgus monkey after 165 mins postinjection; format: ADME, organism-based, Macaca fascicularis; conditions: in vivo, 2.75 h
[57] = Ratio of drug uptake in medulla to cerebellum in anesthetized cynomolgus monkey after 9.5 mins postinjection; format: ADME, organism-based, Macaca fascicularis; conditions: in vivo

O=C(OCC[18F])C1C2CCC(CC1c1ccc(/C=C\I)cc1)N2 (centres undefined)
Drug uptake (Putamen [1]): 4.22 | Drug uptake (Putamen [2]): 2.87 | Drug uptake (Caudate [3]): 2.58 | Drug uptake (Midbrain [4]): 2.78 | Drug uptake (Caudate [5]): 2.61 | Ratio [6]: 1.4 | Drug uptake [7]: 2.02 | Drug uptake [8]: 1.6 | Drug uptake [9]: 2.03 | Ratio [10]: 1.4 | Drug uptake (Pons [11]): 1.62 | Drug uptake (Medulla [12]): 3.88 | Drug uptake (Putamen [13]): 4.34 | Drug uptake (Caudate [14]): 2.73 | Drug uptake (Medulla [15]): 0.14 | Drug uptake (Midbrain [16]): 0.84 | Drug uptake (Medulla [17]): 2.02 | Ratio [18]: 2.7 | Ratio [19]: 1.4 | Drug uptake (Pons [20]): 2.99 | Drug uptake (Caudate [21]): 3.03 | Drug uptake (Putamen [22]): 1.89 | Drug uptake (Thalamus [23]): 3.78 | Drug uptake (Medulla [24]): 3.61 | Drug uptake (Midbrain [25]): 3.04 | Drug uptake (Thalamus [26]): 0.4 | Drug uptake (Medulla [27]): 3.73 | Drug uptake (Pons [28]): 2.17 | Drug uptake (Putamen [29]): 4.01 | Ratio [30]: 0.8 | Drug uptake (Midbrain [31]): 2.2 | Drug uptake (Midbrain [32]): 3.51 | Drug uptake (Pons [33]): 3.6 | Drug uptake (Caudate [34]): 0.07 | Drug uptake (Midbrain [35]): 4.55 | Drug uptake (Midbrain [36]): 1.74 | Drug uptake (Medulla [37]): 3.41 | Drug uptake (Caudate [38]): 0.78 | Drug uptake (Putamen [39]): 3.79 | Drug uptake (Medulla [40]): 0.5 | Drug uptake (Midbrain [41]): 4.01 | Drug uptake (Thalamus [42]): 3.78 | Ratio [43]: 1.4 | Ratio [44]: 0.9 | Drug uptake (Medulla [45]): 1.36 | Drug uptake (Medulla [46]): 3.32 | Drug uptake [47]: 0 | Drug uptake (Medulla [48]): 3.3 | Drug uptake (Midbrain [49]): 4.63 | Drug uptake [50]: 2.63

O=C(OCC[18F])C1C2CCC(CC1c1cccc(/C=C\I)c1)N2 (centres undefined)
Drug uptake (Putamen [1]): 3.02 | Drug uptake (Putamen [2]): 3.78 | Drug uptake (Caudate [3]): 3.67 | Drug uptake (Midbrain [4]): 4.37 | Ratio [51]: 1.2 | Drug uptake (Caudate [5]): 1.99 | Drug uptake [7]: 1.63 | Drug uptake [8]: 1.51 | Drug uptake [9]: 2.53 | Drug uptake (Pons [11]): 2.4 | Drug uptake (Medulla [12]): 3.56 | Ratio [52]: 0.9 | Drug uptake (Putamen [13]): 3.74 | Drug uptake (Caudate [14]): 3.72 | Drug uptake (Medulla [15]): 0.13 | Drug uptake (Midbrain [16]): 1.19 | Drug uptake (Medulla [17]): 2.75 | Drug uptake (Pons [20]): 3.27 | Drug uptake (Pons [53]): 2.36 | Drug uptake (Caudate [21]): 3.53 | Drug uptake (Putamen [22]): 2.54 | Drug uptake (Thalamus [23]): 2.76 | Drug uptake (Medulla [24]): 3.04 | Ratio [54]: 1.1 | Drug uptake (Midbrain [25]): 4.56 | Drug uptake (Thalamus [26]): 0.43 | Ratio [55]: 1.1 | Drug uptake (Medulla [27]): 2.98 | Drug uptake (Pons [28]): 2.91 | Drug uptake (Midbrain [31]): 3.52 | Ratio [56]: 1.8 | Drug uptake (Midbrain [32]): 4.85 | Drug uptake (Pons [33]): 2.65 | Drug uptake (Caudate [34]): 0.08 | Drug uptake (Midbrain [35]): 4.34 | Drug uptake (Midbrain [36]): 2.99 | Drug uptake (Caudate [38]): 1.23 | Drug uptake (Putamen [39]): 2.44 | Drug uptake (Medulla [40]): 0.52 | Drug uptake (Midbrain [41]): 4.91 | Drug uptake (Thalamus [42]): 4.29 | Ratio [44]: 0.9 | Drug uptake (Medulla [45]): 1.8 | Ratio [57]: 0.9 | Drug uptake (Medulla [46]): 2.43 | Drug uptake [47]: 0 | Drug uptake (Medulla [48]): 2.32 | Drug uptake (Midbrain [49]): 3.12 | Drug uptake [50]: 4.02

— ChEMBL document CHEMBL1151757, “Synthesis, radiosynthesis, and biological evaluation of fluorine-18-labeled 2beta-carbo(fluoroalkoxy)-3beta-(3'-((Z)-2-haloethenyl)phenyl)nortropanes: candidate radioligands for in vivo imaging of the serotonin transporter with positron emission tomography” (J Med Chem, 2008)
